Measured values taken from patent US12285418B1, “2-(5-aminopyridin-2-yl)-N-benzylacetamides and use thereof in the treatment of acute myeloid leukemia” (University of Jeddah, priority 2024, dated 2025).
pIC50: −log10 of the molar value.

Tests used:
Type in all cases: cell-based
[1] = test system: MV4-11 cells; assay: Cell viability assay (CellTiter-Blue), MV4-11; conditions: Homo sapiens, 48 h incubation, mean±SD, read-out: IC50 against MV4-11 cells
Method: (§1) Cell viability was determined using the CellTiter®-Blue Cell Viability Assay kit (Promega, Madison, WI, USA) as previously described (Alkhatabi et al., 2022). Approximately 10^4 cells were counted, plated in a 96-well plate in the presence of test compounds ranging from 0.01 to 40 μM in quadruplicate, and incubated for 48 h at 37° C. in a humidified incubator. After the incubation period was completed, 20 μL of CellTiter®-Blue Cell Viability Assay reagent was added to each well and incubated for an additional 2 h for fluorescence development. Florescence was measured at Ex/Em 540/590 on a SpectraMax® i3 Multi-Mode microplate reader (Molecular Devices, LLC, San Jose, CA, USA) and plotted against the drug concentration to determine the IC50 of the test compounds. The IC50 was obtained by a nonlinear regression model using GraphPad Prism 10.1.1 (GraphPad Software, Inc., USA).
(§2) The half-maximal inhibitory concentration (IC50) of each drug was calculated using the GraphPad Prism software version 10.1.1. Flow cytometric data were analyzed using Diva software provided with the BD FACSCanto II Clinical Flow Cytometry System (BD Biosciences, USA). Student's paired t-test and Two-way ANOVA were used to compare data points. Data are presented as mean+SD, and at least three independent experiments were performed. […]

[2] = test system: KG1a cells; assay: Cell viability assay (CellTiter-Blue), KG1a; conditions: Homo sapiens, KG-1a, 48 h incubation, mean±SD, read-out: IC50 against KG1a cells
Method: as §1, §2

[3] = test system: HL60 cells; assay: Cell viability assay (CellTiter-Blue), HL60; conditions: Homo sapiens, HL-60, 48 h incubation, mean±SD, read-out: IC50 against HL60 cells
Method: as §1, §2

[4] = test system: K562 cells; assay: Cell viability assay (CellTiter-Blue), K562; conditions: Homo sapiens, 48 h incubation, mean±SD, read-out: IC50 against K562 cells
Method: as §1, §2

Measured: pIC50

O=C(Cc1ccc(/N=C2\OC(=O)c3ccccc32)cn1)NCc1ccccc1 [Compound II, (Z)-N-benzyl-2-(5-((3-oxoisobenzofuran-1 (3H)-ylidene)amino)pyridin-2-yl) acetamide]
< 5.00: all assays above

O=C(Cc1ccc(NC(=O)c2ccccc2O)cn1)NCc1ccccc1 [Compound III, N-(6-(2-(Benzylamino)-2-oxoethyl)pyridin-3-yl)-2-hydroxybenzamide]
< 5.00: all assays above
